Source: PubChem BioAssay (NCI)
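All cell lines were grown in 96-well plates and treated with compound for 48 hours. GI50: concentration for 50% inhibition of growth. At the TGI there is no net growth.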

Columns and labels:
Assay in all cases: NCI-60 cell line screen, 48 h
[1] = tested on: SK-MEL-28 melanoma
[2] = tested on: A549 NSCLC
[3] = tested on: 786-0 renal
[4] = tested on: PC-3 prostate
[5] = tested on: NCI-H460 lung
[6] = tested on: U251 CNS
[7] = tested on: HOP-92 NSCLC
[8] = tested on: SF-539 CNS
[9] = tested on: NCI-H226 lung
[10] = tested on: HS 578T breast
[11] = tested on: SN12C renal
[12] = tested on: M14 melanoma
[13] = tested on: COLO 205 colon
[14] = tested on: SF-268 CNS
[15] = tested on: HCT-116 colon
[16] = tested on: HOP-62 NSCLC
[17] = tested on: IGROV1 ovarian
[18] = tested on: CCRF-CEM leukemia
[19] = tested on: LOX IMVI melanoma
[20] = tested on: MCF7 breast
[21] = tested on: UACC-257 melanoma
[22] = tested on: HT29 colon
[23] = tested on: SNB-75 CNS
[24] = tested on: SNB-19 CNS
[25] = tested on: CAKI-1 renal
[26] = tested on: MOLT-4 leukemia
[27] = tested on: K-562 leukemia
[28] = tested on: RPMI-8226 leukemia
[29] = tested on: SW-620 colon
[30] = tested on: BT-549 breast
[31] = tested on: HCT-15 colon
[32] = tested on: SK-OV-3 ovarian
[33] = tested on: SF-295 CNS
[34] = tested on: SK-MEL-5 melanoma
[35] = tested on: A498 renal
[36] = tested on: OVCAR-3 ovarian
[37] = tested on: DU-145 prostate
[38] = tested on: MDA-MB-231 breast
[39] = tested on: OVCAR-4 ovarian
[40] = tested on: T-47D breast
[41] = tested on: MDA-MB-435
[42] = tested on: UACC-62 melanoma
[43] = tested on: HCC-2998 colon
[44] = tested on: OVCAR-8 ovarian
[45] = tested on: NCI/ADR-RES ovarian
[46] = tested on: OVCAR-5 ovarian
[47] = tested on: NCI-H23 lung
[48] = tested on: EKVX NSCLC
[49] = tested on: SK-MEL-2 melanoma
[50] = tested on: RXF 393 renal
[51] = tested on: MALME-3M melanoma
[52] = tested on: HL-60(TB) leukemia
[53] = tested on: ACHN renal
[54] = tested on: SR leukemia
[55] = tested on: NCI-H522 lung
[56] = tested on: KM12 colon
[57] = tested on: UO-31 renal
[58] = tested on: TK-10 renal

For `N#Cc1c(N)nc(N2CCOCC2)c(C#N)c1-c1cccc(O)c1`, the GI50 [1] was over 100 µM, the TGI [1] was over 100 µM and the GI50 [2] was over 100 µM. The TGI [2] was over 100 µM, the GI50 [3] was over 100 µM and the TGI [3] was over 100 µM. For the same molecule, the GI50 [4] was 46.9 µM, the TGI [4] was over 100 µM and the GI50 [5] was 93.2 µM. For the same molecule, the TGI [5] was over 100 µM, the GI50 [6] was over 100 µM and the TGI [6] was over 100 µM. The GI50 [7] was 37.6 µM, the TGI [7] was over 100 µM and the GI50 [8] was over 100 µM. It also gave a TGI [8] of over 100 µM, a GI50 [9] of over 100 µM and a TGI [9] of over 100 µM. For the same molecule, the GI50 [10] was 40.7 µM, the TGI [10] was over 100 µM and the GI50 [11] was 69 µM. It also gave a TGI [11] of over 100 µM, a GI50 [12] of over 100 µM and a TGI [12] of over 100 µM. The GI50 [13] was 69.3 µM, the TGI [13] was over 100 µM and the GI50 [14] was over 100 µM. It also gave a TGI [14] of over 100 µM, a GI50 [15] of over 100 µM and a TGI [15] of over 100 µM. For the same molecule, the GI50 [16] was 78.3 µM, the TGI [16] was over 100 µM and the GI50 [17] was 18.7 µM. For the same molecule, the TGI [17] was 61.2 µM, the GI50 [18] was over 100 µM and the TGI [18] was over 100 µM. The GI50 [19] was over 100 µM, the TGI [19] was over 100 µM and the GI50 [20] was 47 µM. It also gave a TGI [20] of over 100 µM, a GI50 [21] of over 100 µM and a TGI [21] of over 100 µM. For the same molecule, the GI50 [22] was over 100 µM, the TGI [22] was over 100 µM and the GI50 [23] was 17.2 µM. It also gave a TGI [23] of 70.6 µM, a GI50 [24] of over 100 µM and a TGI [24] of over 100 µM. For the same molecule, the GI50 [25] was over 100 µM, the TGI [25] was over 100 µM and the GI50 [26] was over 100 µM. It also gave a TGI [26] of over 100 µM, a GI50 [27] of over 100 µM and a TGI [27] of over 100 µM. For the same molecule, the GI50 [28] was 48.7 µM, the TGI [28] was over 100 µM and the GI50 [29] was over 100 µM. For the same molecule, the TGI [29] was over 100 µM, the GI50 [30] was 89.9 µM and the TGI [30] was over 100 µM. For the same molecule, the GI50 [31] was 67 µM, the TGI [31] was over 100 µM and the GI50 [32] was 70.9 µM. The TGI [32] was over 100 µM, the GI50 [33] was over 100 µM and the TGI [33] was over 100 µM. The GI50 [34] was over 100 µM, the TGI [34] was over 100 µM and the GI50 [35] was 14.8 µM. For the same molecule, the TGI [35] was 58.3 µM, the GI50 [36] was 61.9 µM and the TGI [36] was over 100 µM. It also gave a GI50 [37] of over 100 µM, a TGI [37] of over 100 µM and a GI50 [38] of 71.2 µM. It also gave a TGI [38] of over 100 µM, a GI50 [39] of 26.5 µM and a TGI [39] of over 100 µM. The GI50 [40] was 42.7 µM, the TGI [40] was over 100 µM and the GI50 [41] was over 100 µM. The TGI [41] was over 100 µM, the GI50 [42] was 40.8 µM and the TGI [42] was over 100 µM. It also gave a GI50 [43] of 68.5 µM, a TGI [43] of over 100 µM and a GI50 [44] of over 100 µM. The TGI [44] was over 100 µM, the GI50 [45] was over 100 µM and the TGI [45] was over 100 µM. The GI50 [46] was over 100 µM, the TGI [46] was over 100 µM and the GI50 [47] was 54.8 µM. The TGI [47] was over 100 µM, the GI50 [48] was 73.5 µM and the TGI [48] was over 100 µM. For the same molecule, the GI50 [49] was over 100 µM, the TGI [49] was over 100 µM and the GI50 [50] was 38.1 µM. It also gave a TGI [50] of 95.1 µM.
For `Cc1ncc([N+](=O)[O-])n1CC(O)Cn1cnc([N+](=O)[O-])n1` (configuration not stated), the TGI [1] was over 100 µM, the TGI [2] was over 100 µM and the TGI [3] was over 100 µM. The TGI [4] was over 100 µM, the TGI [5] was over 100 µM and the TGI [6] was over 100 µM. It also gave a TGI [8] of over 100 µM, a TGI [9] of over 100 µM and a TGI [10] of over 100 µM. The TGI [11] was over 100 µM, the TGI [14] was over 100 µM and the TGI [15] was over 100 µM. The TGI [16] was over 100 µM, the TGI [18] was over 100 µM and the TGI [51] was over 100 µM. It also gave a TGI [20] of over 100 µM, a TGI [52] of over 100 µM and a TGI [21] of over 100 µM. It also gave a TGI [22] of over 100 µM, a TGI [23] of over 100 µM and a TGI [53] of over 100 µM. It also gave a TGI [54] of over 100 µM, a TGI [26] of over 100 µM and a TGI [27] of over 100 µM. For the same molecule, the TGI [28] was over 100 µM, the TGI [29] was over 100 µM and the TGI [55] was over 100 µM. The TGI [31] was over 100 µM, the TGI [33] was over 100 µM and the TGI [34] was over 100 µM. The TGI [35] was over 100 µM, the TGI [36] was over 100 µM and the TGI [56] was over 100 µM. For the same molecule, the TGI [43] was over 100 µM, the TGI [44] was over 100 µM and the TGI [46] was over 100 µM. The TGI [47] was over 100 µM, the TGI [48] was over 100 µM and the TGI [49] was over 100 µM.
Molecule `C/C=C/C/C=C/CCC(=O)C1OC1C(N)=O` (configuration not stated) has a TGI [1] of 30.6 µM, a TGI [2] of 56 µM and a TGI [3] of 25.8 µM. It also gave a TGI [4] of 28.7 µM, a TGI [5] of 25.4 µM and a TGI [6] of 30.7 µM. It also gave a TGI [7] of 29.4 µM, a TGI [8] of 30.6 µM and a TGI [10] of 76.2 µM. It also gave a TGI [11] of 39.8 µM, a TGI [12] of 29.2 µM and a TGI [13] of 33.5 µM. It also gave a TGI [14] of 26.9 µM, a TGI [15] of 28.2 µM and a TGI [16] of 15.8 µM. The TGI [17] was 31.8 µM, the TGI [18] was 98.3 µM and the TGI [19] was 26.6 µM. For the same molecule, the TGI [51] was 32.9 µM, the TGI [20] was 30.6 µM and the TGI [21] was 31.1 µM. It also gave a TGI [22] of 33.1 µM, a TGI [23] of 27.8 µM and a TGI [53] of 28.5 µM. It also gave a TGI [24] of 32.1 µM, a TGI [54] of 50.5 µM and a TGI [25] of 29.8 µM. For the same molecule, the TGI [26] was 51.7 µM, the TGI [27] was 36.8 µM and the TGI [29] was 42.3 µM. For the same molecule, the TGI [55] was 25.8 µM, the TGI [30] was 24.6 µM and the TGI [31] was 25.9 µM. The TGI [32] was 81.8 µM, the TGI [57] was 29.5 µM and the TGI [33] was 30 µM. It also gave a TGI [34] of 28.3 µM, a TGI [36] of 32.8 µM and a TGI [37] of 31.3 µM. For the same molecule, the TGI [38] was 31.1 µM, the TGI [39] was 23.8 µM and the TGI [56] was 29.5 µM. It also gave a TGI [58] of 25.9 µM, a TGI [41] of 28.3 µM and a TGI [42] of 29.3 µM. The TGI [43] was 31.1 µM, the TGI [44] was 26.7 µM and the TGI [45] was 50.1 µM. The TGI [46] was 32.8 µM, the TGI [47] was 28.2 µM and the TGI [48] was 36.4 µM. For the same molecule, the TGI [49] was 32.5 µM and the TGI [50] was 21.7 µM.
